Laboratory results as given in the NIST ThermoML archive (doi:10.1016/j.tca.2013.10.017).
Numbers after ± are expanded uncertainties.

Experiment: xn = mol fraction of the nth substance listed
Details: for surface tension liquid-gas: Ring tensiometer; for mass density: 101 kPa, Liquid, Vibrating tube method

C[N+](C)(C)CCO.[Cl-] [choline chloride] + OCCO
x1 = 0.33
Details | mass density [kg/m3] | surface tension liquid-gas [mN/m]
298.15 K | 1118 ± 1 | 48.91 ± 0.9
303.15 K | 1116 ± 1 | 48.43 ± 0.89
308.15 K | 1112 ± 1 | 47.97 ± 0.88
313.15 K | 1110 ± 1 | 47.5 ± 0.87
318.15 K | 1106 ± 1 | 47.03 ± 0.86
323.15 K | 1104 ± 1 | 46.67 ± 0.86
328.15 K | 1101 ± 1 | 46.11 ± 0.85

O=C(CO)[C@@H](O)[C@H](O)[C@H](O)CO [D-fructose] + C[N+](C)(C)CCO.[Cl-]
x2 = 0.67
Details | surface tension liquid-gas [mN/m]
298.15 K | 74.01 ± 1.4
308.15 K | 71.98 ± 1.4
318.15 K | 70.02 ± 1.4
328.15 K | 68.03 ± 1.3
338.15 K | 65.98 ± 1.3
348.15 K | 64.02 ± 1.2
358.15 K | 62.05 ± 1.2

C[N+](C)(C)CCO.[Cl-] [choline chloride] + OCC(O)CO
x1 = 0.33
Details | surface tension liquid-gas [mN/m]
298.15 K | 57.24 ± 1
303.15 K | 56.85 ± 1
308.15 K | 56.43 ± 1
313.15 K | 55.93 ± 1
318.15 K | 55.45 ± 1
323.15 K | 55.03 ± 1
328.15 K | 54.55 ± 0.99

CCN(CC)CCO.Cl [2-(diethylamino)ethanol hydrochloride] + OCCO
x1 = 0.25
Details | mass density [kg/m3] | surface tension liquid-gas [mN/m]
298.15 K | 1100 ± 1 | 51.29 ± 0.91
303.15 K | 1097 ± 1 | 50.74 ± 0.9
308.15 K | 1093 ± 1 | 50.17 ± 0.89
313.15 K | 1090 ± 1 | 49.63 ± 0.88
318.15 K | 1087 ± 1 | 49.14 ± 0.87
323.15 K | 1084 ± 1 | 48.67 ± 0.87
328.15 K | 1081 ± 1 | 48.12 ± 0.86

C[P+](c1ccccc1)(c1ccccc1)c1ccccc1.[Br-] [methyltriphenylphosphonium bromide] + OCC(O)CO
x1 = 0.25
Details | surface tension liquid-gas [mN/m]
298.15 K | 59.35 ± 1
303.15 K | 58.81 ± 1
308.15 K | 58.2 ± 1
313.15 K | 57.68 ± 1
318.15 K | 57.06 ± 1
323.15 K | 56.45 ± 0.99
328.15 K | 55.95 ± 0.98

C[P+](c1ccccc1)(c1ccccc1)c1ccccc1.[Br-] [methyltriphenylphosphonium bromide] + OCCO
x1 = 0.2
Details | mass density [kg/m3] | surface tension liquid-gas [mN/m]
298.15 K | 1289 ± 1 | 47.51 ± 0.85
303.15 K | 1286 ± 1 | 47.06 ± 0.84
308.15 K | 1282 ± 1 | 46.57 ± 0.83
313.15 K | 1278 ± 1 | 46.12 ± 0.82
318.15 K | 1275 ± 1 | 45.59 ± 0.82
323.15 K | 1271 ± 1 | 45.12 ± 0.81
328.15 K | 1267 ± 1 | 44.64 ± 0.8

C[N+](C)(C)CCO.[Cl-] [choline chloride] + O=C[C@H](O)[C@@H](O)[C@H](O)[C@H](O)CO
x1 = 0.67
Details | surface tension liquid-gas [mN/m]
298.15 K | 71.71 ± 1.3
308.15 K | 71.11 ± 1.3
318.15 K | 70.42 ± 1.3
328.15 K | 69.95 ± 1.3
338.15 K | 69.44 ± 1.3
348.15 K | 68.91 ± 1.3
358.15 K | 68.61 ± 1.3

CCN(CC)CCO.Cl [2-(diethylamino)ethanol hydrochloride] + OCC(O)CO
x1 = 0.2
Details | mass density [kg/m3] | surface tension liquid-gas [mN/m]
298.15 K | 1205 ± 1 | 58.94 ± 1
303.15 K | 1202 ± 1 | 58.33 ± 1
308.15 K | 1199 ± 1 | 57.63 ± 1
313.15 K | 1196 ± 1 | 56.99 ± 1
318.15 K | 1193 ± 1 | 56.39 ± 0.99
323.15 K | 1188 ± 1 | 55.73 ± 0.98
328.15 K | 1187 ± 1 | 55.16 ± 0.97
